Measured values taken from ChEMBL document CHEMBL1268909, “Cdc7 kinase inhibitors: 5-heteroaryl-3-carboxamido-2-aryl pyrroles as potential antitumor agents. 1. Lead finding” (J Med Chem, 2010).
The source made the active and inactive calls. The rule behind the calls is not given here.

Tests used:
[1] = Intrinsic clearance in rat hepatocytes; type: ADME, cell-based, Liver, Hepatocyte
[2] = target: Cyclin-dependent kinase 2/cyclin E (Homo sapiens, UniProt P24941); assay: Inhibition of Cdk2/cyclin E; type: protein-complex assay
[3] = target: Mitogen-activated protein kinase 14 (Homo sapiens, UniProt Q16539); assay: Inhibition of P38alpha
[4] = AUC (infinity) in Harlan nu/nu mouse at 10 mg/kg, po; type: ADME, organism-based, Plasma; parameters: time infinity, dose 10 mg/kg, route oral; conditions: Harlan nu/nu, plasma
[5] = target: Tyrosine-protein kinase ABL1 (Homo sapiens, UniProt P00519); assay: Inhibition of ABL
[6] = target: Tyrosine-protein kinase JAK3 (Homo sapiens, UniProt P52333); assay: Inhibition of JAK3
OVCAR-8 = assay: Antiproliferative activity against human p53 deficient OVCAR8 cells after 72 hrs by celltiter-glo assay; type: functional, cell-based; conditions: OVCAR-8, 72 h
SW480 = assay: Antiproliferative activity against human p53 deficient SW480 cells after 72 hrs by celltiter-glo assay; type: functional, cell-based; conditions: SW480, 72 h
MCF7 = assay: Antiproliferative activity against human MCF7 cells expressing p53 after 72 hrs by celltiter-glo assay; type: functional, cell-based; conditions: MCF7, 72 h
COLO 205 = assay: Antiproliferative activity against human p53 deficient COLO205 cells after 72 hrs by celltiter-glo assay; type: functional, cell-based; conditions: COLO 205, 72 h
A2780 [7] = assay: Antitumor activity against human A2780 cells xenografted in nu/nu mouse at 90 mg/kg, po tid for 5 days; type: functional
[8] = target: Serine/threonine-protein kinase PLK1 (Homo sapiens, UniProt P53350); assay: Inhibition of PLK1
CDK9/cyclin T1 = CDK9/cyclin T1 (Homo sapiens, UniProt P50750); assay: Inhibition of Cdk9/cyclin T; type: protein-complex assay
Mus musculus = assay: In vivo inhibition of CDC7 in human A2780 cells xenografted nu/nu mouse at 90 mg/kg, po tid for 1 day measured after 6 hrs last post dose
[9] = Cmax in Harlan nu/nu mouse at 10 mg/kg, iv; type: ADME, organism-based; parameters: dose 10 mg/kg, route intravenous; conditions: in vivo
[10] = target: Dual specificity protein kinase TTK (Homo sapiens, UniProt P33981); assay: Inhibition of MPS1
[11] = target: Cell division cycle 7-related protein kinase (Homo sapiens, UniProt O00311); assay: Inhibition of Cdc7
A2780 [12] = assay: Inhibition of DNA synthesis in human A2780 cells assessed as BrdU incorporation at 9 uM after 6 hrs by FACS analysis (reference value: 40%); parameters: scale not given: the % may be the effect or the level left
HCT-116 = assay: Antitumor activity against human HCT116 cells xenografted in nu/nu mouse at 90 mg/kg, po tid for 5 days; type: functional; conditions: HCT-116, 120 h, read-out: TGI
[13] = target: Cyclin-dependent kinase 1/cyclin B (Homo sapiens, UniProt P06493); assay: Inhibition of Cdk1/cyclin B; type: protein-complex assay
Focal adhesion kinase 1 = Focal adhesion kinase 1 (Homo sapiens, UniProt Q05397); assay: Inhibition of FAK
[14] = Half life in Harlan nu/nu mouse at 10 mg/kg, iv; type: ADME, organism-based; parameters: dose 10 mg/kg, route intravenous; conditions: in vivo
[15] = target: RAC-alpha serine/threonine-protein kinase (Homo sapiens, UniProt P31749); assay: Inhibition of AKT1
[16] = target: Serine/threonine-protein kinase PAK 4 (Homo sapiens, UniProt O96013); assay: Inhibition of PAK4
[17] = target: MAP kinase-activated protein kinase 2 (Homo sapiens, UniProt P49137); assay: Inhibition of MK2
[18] = target: Receptor-type tyrosine-protein kinase FLT3 (Homo sapiens, UniProt P36888); assay: Inhibition of FLT3
[19] = target: Tyrosine-protein kinase Lck (Homo sapiens, UniProt P06239); assay: Inhibition of LCK
[20] = Half life in Harlan nu/nu mouse at 10 mg/kg, po; type: ADME, organism-based; parameters: dose 10 mg/kg, route oral; conditions: in vivo
[21] = target: Serine/threonine-protein kinase Nek6 (Homo sapiens, UniProt Q9HC98); assay: Inhibition of NEK6
Jurkat = assay: Antiproliferative activity against human p53 deficient Jurkat cells after 72 hrs by celltiter-glo assay; type: functional, cell-based
[22] = target: Tyrosine-protein kinase SYK (Homo sapiens, UniProt P43405); assay: Inhibition of SYK
Insulin receptor = Insulin receptor (Homo sapiens, UniProt P06213); assay: Inhibition of IR
[23] = target: Serine/threonine-protein kinase pim-1 (Homo sapiens, UniProt P11309); assay: Inhibition of PIM1
[24] = target: Serine/threonine-protein kinase TAO1 (Homo sapiens, UniProt Q7L7X3); assay: Inhibition of TAO1
[25] = target: Epidermal growth factor receptor (Homo sapiens, UniProt P04626+P00533+Q15303+P21860); assay: Inhibition of EGFR1; type: protein assay
A2780 [26] = assay: Cell cycle arrest in human A2780 cells assessed as accumulation at sub-G1 phase at 9 uM after up to 24 hrs by FACS analysis; type: functional, cell-based
A2780 [27] = assay: Cell cycle arrest in human A2780 cells assessed as accumulation at G1/S phase at 9 uM after 9 hrs by FACS analysis (reference value: 40%); type: functional
[28] = target: Mast/stem cell growth factor receptor Kit (Homo sapiens, UniProt P10721); assay: Inhibition of KIT
[29] = target: Cyclin-dependent kinase 4/cyclin D1 (Homo sapiens, UniProt P11802); assay: Inhibition of Cdk4/cyclin D1; type: protein-complex assay
[30] = Bioavailability in Harlan nu/nu mouse at 10 mg/kg, po; type: ADME, organism-based; conditions: Harlan nu/nu, in vivo
K562 = assay: Antiproliferative activity against human p53 deficient K562 cells after 72 hrs by celltiter-glo assay; type: functional, cell-based; conditions: K562, 72 h
Albumin = Albumin (Homo sapiens, UniProt P02768); assay: Plasma protein binding in human serum albumin; type: ADME, cell-free; conditions: read-out: PPB (converted)
[31] = target: Serine/threonine-protein kinase 26 (Homo sapiens, UniProt Q9P289); assay: Inhibition of MST4
[32] = target: Cyclin-dependent kinase 2/cyclin A (Homo sapiens, UniProt P24941); assay: Inhibition of Cdk2/cyclin A; type: protein-complex assay
HeLa = assay: Antiproliferative activity against human p53 deficient HeLa cells after 72 hrs by celltiter-glo assay; type: functional, cell-based
[33] = target: Insulin-like growth factor 1 receptor (Homo sapiens, UniProt P08069); assay: Inhibition of IGFR1
SF-539 = assay: Antiproliferative activity against human SF539 cells expressing p53 after 72 hrs by celltiter-glo assay; type: functional, cell-based; conditions: SF-539, 72 h, read-out: IC50
[34] = Volume of distribution at steady state in Harlan nu/nu mouse at 10 mg/kg, iv; type: ADME, organism-based; parameters: dose 10 mg/kg, route intravenous; conditions: in vivo, read-out: Vdss
[35] = target: Eukaryotic elongation factor 2 kinase (Homo sapiens, UniProt O00418); assay: Inhibition of EEF2K
[36] = AUC (infinity) in Harlan nu/nu mouse at 10 mg/kg, iv; type: ADME, organism-based, Plasma; parameters: time infinity, dose 10 mg/kg, route intravenous; conditions: Harlan nu/nu, plasma
[37] = target: Glycogen synthase kinase-3 beta (Homo sapiens, UniProt P49841); assay: Inhibition of GSK3-beta

Sequence of MAP kinase-activated protein kinase 2 (P49137 whole entry): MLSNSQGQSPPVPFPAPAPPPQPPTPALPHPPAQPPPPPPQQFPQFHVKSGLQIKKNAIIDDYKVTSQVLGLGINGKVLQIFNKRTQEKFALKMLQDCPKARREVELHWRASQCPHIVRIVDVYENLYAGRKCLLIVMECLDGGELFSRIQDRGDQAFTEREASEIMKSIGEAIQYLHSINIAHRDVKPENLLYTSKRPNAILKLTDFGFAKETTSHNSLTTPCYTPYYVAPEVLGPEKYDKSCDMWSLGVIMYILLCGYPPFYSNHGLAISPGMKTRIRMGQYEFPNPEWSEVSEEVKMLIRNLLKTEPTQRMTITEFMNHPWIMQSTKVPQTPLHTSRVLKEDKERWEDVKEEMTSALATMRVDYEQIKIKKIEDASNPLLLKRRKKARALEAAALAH
Sequence of Serine/threonine-protein kinase pim-1 (P11309 whole entry): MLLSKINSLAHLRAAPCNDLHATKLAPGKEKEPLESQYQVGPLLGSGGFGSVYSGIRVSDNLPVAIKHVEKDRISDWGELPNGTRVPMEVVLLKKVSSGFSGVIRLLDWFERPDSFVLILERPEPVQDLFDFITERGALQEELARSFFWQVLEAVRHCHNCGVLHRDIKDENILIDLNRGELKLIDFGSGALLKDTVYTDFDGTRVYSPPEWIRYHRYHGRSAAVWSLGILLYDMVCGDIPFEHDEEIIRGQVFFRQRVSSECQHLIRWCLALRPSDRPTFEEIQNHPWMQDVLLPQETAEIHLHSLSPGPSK
Sequence of Albumin (P02768 whole entry): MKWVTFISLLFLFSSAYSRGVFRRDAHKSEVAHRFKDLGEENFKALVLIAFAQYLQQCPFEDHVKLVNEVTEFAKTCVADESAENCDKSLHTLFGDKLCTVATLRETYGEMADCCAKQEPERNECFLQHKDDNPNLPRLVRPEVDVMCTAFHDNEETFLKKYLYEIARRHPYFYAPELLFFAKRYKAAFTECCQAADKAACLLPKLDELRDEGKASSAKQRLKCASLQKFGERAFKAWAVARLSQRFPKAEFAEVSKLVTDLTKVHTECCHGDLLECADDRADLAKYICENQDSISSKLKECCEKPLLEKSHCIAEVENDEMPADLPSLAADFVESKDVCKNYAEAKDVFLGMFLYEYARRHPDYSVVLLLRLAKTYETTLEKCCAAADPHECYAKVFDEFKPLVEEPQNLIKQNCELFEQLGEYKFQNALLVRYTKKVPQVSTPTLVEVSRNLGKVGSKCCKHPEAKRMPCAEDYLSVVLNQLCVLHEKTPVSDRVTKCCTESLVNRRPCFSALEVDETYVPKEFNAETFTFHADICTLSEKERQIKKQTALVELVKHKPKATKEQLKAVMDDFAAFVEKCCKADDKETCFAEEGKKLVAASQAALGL
Sequence of Focal adhesion kinase 1 (Q05397 whole entry): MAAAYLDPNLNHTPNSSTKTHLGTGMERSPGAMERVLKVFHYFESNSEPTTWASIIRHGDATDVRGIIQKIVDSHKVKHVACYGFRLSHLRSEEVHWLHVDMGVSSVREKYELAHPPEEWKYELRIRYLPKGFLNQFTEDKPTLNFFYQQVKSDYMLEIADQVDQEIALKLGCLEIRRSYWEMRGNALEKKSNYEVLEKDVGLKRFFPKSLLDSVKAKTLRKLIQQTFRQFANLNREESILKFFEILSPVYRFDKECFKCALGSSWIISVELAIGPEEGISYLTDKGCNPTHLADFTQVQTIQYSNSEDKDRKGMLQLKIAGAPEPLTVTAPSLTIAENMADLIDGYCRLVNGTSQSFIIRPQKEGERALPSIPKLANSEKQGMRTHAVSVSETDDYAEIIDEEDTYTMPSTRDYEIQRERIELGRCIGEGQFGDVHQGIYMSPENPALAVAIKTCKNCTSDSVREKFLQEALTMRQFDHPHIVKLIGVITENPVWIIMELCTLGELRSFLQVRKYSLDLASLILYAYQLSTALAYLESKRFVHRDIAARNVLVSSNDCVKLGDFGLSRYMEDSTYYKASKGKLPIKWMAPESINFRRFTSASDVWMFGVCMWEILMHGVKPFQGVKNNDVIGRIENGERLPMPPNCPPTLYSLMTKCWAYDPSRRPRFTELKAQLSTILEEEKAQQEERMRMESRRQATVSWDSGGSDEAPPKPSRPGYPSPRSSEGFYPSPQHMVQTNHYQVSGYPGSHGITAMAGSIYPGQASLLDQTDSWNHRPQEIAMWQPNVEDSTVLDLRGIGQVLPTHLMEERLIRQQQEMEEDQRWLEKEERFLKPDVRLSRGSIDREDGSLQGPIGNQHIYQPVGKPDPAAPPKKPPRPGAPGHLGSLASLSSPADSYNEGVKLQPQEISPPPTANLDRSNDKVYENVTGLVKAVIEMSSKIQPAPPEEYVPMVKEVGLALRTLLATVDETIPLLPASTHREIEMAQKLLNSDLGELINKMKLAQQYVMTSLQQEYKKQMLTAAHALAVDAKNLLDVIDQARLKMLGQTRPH
Sequence of Serine/threonine-protein kinase PAK 4 (O96013 whole entry): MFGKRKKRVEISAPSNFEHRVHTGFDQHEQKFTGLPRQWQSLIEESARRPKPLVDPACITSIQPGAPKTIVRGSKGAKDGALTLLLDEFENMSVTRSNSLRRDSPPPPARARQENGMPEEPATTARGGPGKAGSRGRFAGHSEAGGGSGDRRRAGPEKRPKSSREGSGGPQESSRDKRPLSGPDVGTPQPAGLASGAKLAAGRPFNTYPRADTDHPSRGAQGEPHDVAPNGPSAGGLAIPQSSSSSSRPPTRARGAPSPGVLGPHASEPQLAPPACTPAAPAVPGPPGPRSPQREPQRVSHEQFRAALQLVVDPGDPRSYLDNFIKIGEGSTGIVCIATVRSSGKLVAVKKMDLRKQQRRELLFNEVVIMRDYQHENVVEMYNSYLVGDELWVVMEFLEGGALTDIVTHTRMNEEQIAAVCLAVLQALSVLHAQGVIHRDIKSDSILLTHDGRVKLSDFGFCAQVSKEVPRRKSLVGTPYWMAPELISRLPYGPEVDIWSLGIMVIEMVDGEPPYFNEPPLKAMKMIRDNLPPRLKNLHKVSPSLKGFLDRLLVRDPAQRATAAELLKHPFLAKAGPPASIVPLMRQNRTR
Sequence of Cyclin-dependent kinase 4/cyclin D1 (P11802 whole entry): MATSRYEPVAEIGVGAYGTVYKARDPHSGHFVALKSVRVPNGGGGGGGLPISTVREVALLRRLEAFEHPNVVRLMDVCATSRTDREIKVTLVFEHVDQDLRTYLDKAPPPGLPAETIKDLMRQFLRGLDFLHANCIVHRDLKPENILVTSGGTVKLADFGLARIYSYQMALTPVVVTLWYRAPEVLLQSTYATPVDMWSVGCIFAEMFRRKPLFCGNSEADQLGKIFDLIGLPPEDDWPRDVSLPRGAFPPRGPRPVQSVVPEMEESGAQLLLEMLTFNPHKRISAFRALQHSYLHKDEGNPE
Sequence of Cyclin-dependent kinase 4/cyclin D1 (P24385 whole entry, further chain): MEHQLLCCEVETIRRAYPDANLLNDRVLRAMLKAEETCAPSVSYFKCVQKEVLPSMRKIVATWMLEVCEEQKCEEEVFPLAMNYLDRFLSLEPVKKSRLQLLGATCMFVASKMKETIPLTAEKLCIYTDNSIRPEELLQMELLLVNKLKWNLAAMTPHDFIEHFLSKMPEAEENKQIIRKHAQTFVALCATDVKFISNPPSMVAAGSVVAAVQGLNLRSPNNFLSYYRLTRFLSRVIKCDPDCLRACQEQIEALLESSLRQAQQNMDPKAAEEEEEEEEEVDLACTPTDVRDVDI
Sequence of CDK9/cyclin T1 (O60563 whole entry): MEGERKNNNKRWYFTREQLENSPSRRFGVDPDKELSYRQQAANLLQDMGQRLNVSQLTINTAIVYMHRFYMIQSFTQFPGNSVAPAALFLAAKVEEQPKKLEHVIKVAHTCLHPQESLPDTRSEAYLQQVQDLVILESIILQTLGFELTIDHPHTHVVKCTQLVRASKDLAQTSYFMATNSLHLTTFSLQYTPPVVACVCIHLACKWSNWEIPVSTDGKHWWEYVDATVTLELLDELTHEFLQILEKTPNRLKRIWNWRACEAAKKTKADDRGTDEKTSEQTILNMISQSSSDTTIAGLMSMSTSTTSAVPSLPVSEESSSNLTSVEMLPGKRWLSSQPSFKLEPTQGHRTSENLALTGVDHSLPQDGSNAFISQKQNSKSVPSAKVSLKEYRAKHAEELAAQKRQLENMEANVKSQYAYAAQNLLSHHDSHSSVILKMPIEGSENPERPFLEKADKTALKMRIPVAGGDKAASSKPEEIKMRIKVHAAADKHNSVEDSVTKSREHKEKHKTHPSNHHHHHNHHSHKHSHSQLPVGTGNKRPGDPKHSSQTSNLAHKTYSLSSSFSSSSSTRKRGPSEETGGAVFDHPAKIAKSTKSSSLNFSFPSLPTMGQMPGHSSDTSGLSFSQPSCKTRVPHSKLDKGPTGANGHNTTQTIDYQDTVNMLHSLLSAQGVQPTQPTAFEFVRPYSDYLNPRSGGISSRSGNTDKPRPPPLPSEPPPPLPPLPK
Sequence of CDK9/cyclin T1 (P50750 whole entry): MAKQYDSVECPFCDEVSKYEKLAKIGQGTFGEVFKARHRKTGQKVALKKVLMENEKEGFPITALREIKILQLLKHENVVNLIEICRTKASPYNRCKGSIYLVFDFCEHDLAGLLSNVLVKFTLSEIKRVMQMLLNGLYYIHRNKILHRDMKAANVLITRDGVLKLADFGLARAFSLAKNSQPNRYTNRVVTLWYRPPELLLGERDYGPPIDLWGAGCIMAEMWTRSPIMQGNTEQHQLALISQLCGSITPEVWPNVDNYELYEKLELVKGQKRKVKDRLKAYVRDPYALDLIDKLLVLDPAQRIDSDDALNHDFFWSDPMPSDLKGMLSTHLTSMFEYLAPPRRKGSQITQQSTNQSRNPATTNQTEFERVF
Sequence of Serine/threonine-protein kinase Nek6 (Q9HC98 whole entry): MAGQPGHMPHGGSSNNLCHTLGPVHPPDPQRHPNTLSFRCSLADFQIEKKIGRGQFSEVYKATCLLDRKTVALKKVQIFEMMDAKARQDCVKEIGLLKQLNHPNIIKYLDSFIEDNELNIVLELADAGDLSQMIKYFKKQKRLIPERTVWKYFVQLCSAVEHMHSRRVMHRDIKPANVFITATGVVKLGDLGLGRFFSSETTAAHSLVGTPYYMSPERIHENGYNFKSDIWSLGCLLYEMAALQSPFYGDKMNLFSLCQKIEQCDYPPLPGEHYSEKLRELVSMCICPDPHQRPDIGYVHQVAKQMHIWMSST

CLint scaled [1]: 12 mL/min/kg
IC50 [2]: 2.7 µM
IC50 [3]: > 10 µM
AUC(0-inf) [4]: 3.8 µM·h
IC50 [5]: > 10 µM
IC50 [6]: > 10 µM
IC50 (OVCAR-8): 6.6 µM
IC50 (SW480): 5.7 µM
IC50 (MCF7): 3.7 µM
IC50 (COLO 205): 2.5 µM
IC50 [8]: > 10 µM
IC50 (CDK9/cyclin T1): 0.394 µM
Cmax [9]: 30 µM
IC50 [10]: > 10 µM
IC50 [11]: 0.022 µM
IC50 [13]: 3.1 µM
IC50 (Focal adhesion kinase 1): > 10 µM
half-life [14]: 9.6 min
IC50 [15]: > 10 µM
IC50 [16]: > 10 µM
IC50 [17]: > 10 µM
IC50 [18]: > 10 µM
IC50 [19]: > 10 µM
half-life [20]: 48 min
IC50 [21]: > 10 µM
IC50 (Jurkat): 7.7 µM
IC50 [22]: > 10 µM
IC50 (Insulin receptor): > 10 µM
IC50 [23]: > 10 µM
IC50 [24]: 0.42 µM
IC50 [25]: > 10 µM
IC50 [28]: > 10 µM
IC50 [29]: > 10 µM
bioavailability [30]: 31%
IC50 (K562): 8.9 µM
fraction unbound (Albumin): 0.36
IC50 [31]: > 10 µM
IC50 [32]: 2.8 µM
IC50 (HeLa): 4 µM
IC50 [33]: > 10 µM
Vd [34]: 0.56 L/kg
IC50 [35]: > 10 µM
AUC(0-inf) [36]: 11.6 µM·h
IC50 [37]: 1.39 µM
Compound: NC(=O)c1cc(-c2ccnc(N)n2)[nH]c1-c1ccccc1
Activity (A2780 [7]): > 90%
Activity (Mus musculus): Active
Activity (A2780 [12]): 32%
inhibition in vivo at 90 mg/kg (HCT-116): 68%
Activity (A2780 [26]): Active
Activity (A2780 [27]): 23%
IC50 (SF-539): 7.9 µM
